Data as given in patent publication US20100184708A1, “USE OF GLY-PRO-GLU-OH (GPE) AS A THERAPEUTIC AGENT” (priority 2007, published 2010).

Tested on: drug-resistant Mycobacterium tuberculosis
Details: peptide 10 micrograms per ml, seven days

## NCC(=O)N1CCC[C@H]1C(=O)N[C@@H](CCC(=O)O)C(=O)O [IGF-I (1-3), Gly-Pro-Glu-OH]
  % inhibition: 0.0%
